From patent US20020137929A1, “1 - (3-heterocyclylphenyl) isothiourea, -isourea, -guanidine and -amidine herbicidal agents” (Intellectual Property Department, BASF Aktiengesellschaft, priority 1998, published 2002)

Legend:
AMBEL (Ragweed, Common) [1] = assay: Postemergence herbicidal evaluation; type: in vivo, Ambrosia artemisifolia; settings: for AMBEL herbicidal rating: postemergence
Procedure, shortened: (§1)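 Visual 0–9 rating versus control (stand, vigor, malformation, size, chlorosis, overall appearance), taken four to five weeks post-spray. Two-week-old seedlings received roughly 0.0156–0.500 kg/ha active in acetone/water (50/50) with 0.5% TWEEN 20 via nozzle at 40 psi.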

[2] = test system: IPOHE (Morningglory, Ivyleaf); assay: Postemergence herbicidal evaluation; type: in vivo, Ipomoea hederacea; settings: for IPOHE herbicidal rating: postemergence
Procedure, shortened: as §1

[3] = test system: GLXMAW (Soybean, Williams); assay: Postemergence herbicidal evaluation; type: in vivo, Glycine max, (L.) Merr. cv Williams; settings: for GLXMAW herbicidal rating: postemergence
Procedure, shortened: as §1

ZEAMX (Corn, Field) = assay: Postemergence herbicidal evaluation; type: in vivo, Zea mays; settings: for ZEAMX herbicidal rating: postemergence
Procedure, shortened: as §1

ABUTH (Velvetleaf) = assay: Preemergence herbicidal evaluation; type: in vivo, Abutilon theophrasti; settings: rated 4-5 weeks after treatment
Procedure, shortened: (§2)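 Sown cups got a single aqueous acetone spray of test compound (roughly 0.0156–0.500 kg/ha) before seedlings emerged. Evaluation, 4–5 weeks on, used a 0–9 visual scale covering plant stand, vigor, size, malformation, chlorosis and general appearance compared with controls.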

AMBEL (Ragweed, Common) [4] = assay: Preemergence herbicidal evaluation; type: in vivo, Ambrosia artemisifolia; settings: rated 4-5 weeks after treatment
Procedure, shortened: as §2

CASOB (Sicklepod) = assay: Preemergence herbicidal evaluation; type: in vivo, Cassia obtusifolia; settings: rated 4-5 weeks after treatment
Procedure, shortened: as §2

GALAP (Galium) = assay: Preemergence herbicidal evaluation; type: in vivo, Galium aparine; settings: rated 4-5 weeks after treatment
Procedure, shortened: as §2

ECHCG (Barnyardgrass) = assay: Preemergence herbicidal evaluation; type: in vivo, Echinochloa crus-galli; settings: rated 4-5 weeks after treatment
Procedure, shortened: as §2

SETVI (Foxtail, Green) = assay: Preemergence herbicidal evaluation; type: in vivo, Setaria viridis; settings: rated 4-5 weeks after treatment
Procedure, shortened: as §2

[5] = test system: GLXMAW (Soybean, Williams); assay: Preemergence herbicidal evaluation; type: in vivo, Glycine max, (L.) Merr. cv Williams; settings: rated 4-5 weeks after treatment
Procedure, shortened: as §2

CYPSE (Flatsedge) = assay: Preemergence weed control under flooded paddy conditions; type: in vivo, Cyperus serotinus; settings: rated 3-4 weeks after treatment
Procedure, shortened: (§3)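 Using flooded silt loam (water 1.5 to 3 cm deep), seeds sown in the top 0.5 cm were exposed preemergence to compound pipetted into the flood at about 0.0313 to 0.500 kg/ha. Effects were scored 0-9 by eye three to four weeks later.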

[6] = test system: SAGPY (Arrowhead (Pygmaea)); assay: as above; type: in vivo, Sagittaria pygmaea; settings: rated 3-4 weeks after treatment
Procedure, shortened: as §3

[7] = test system: ECHORC (Watergrass (Calif.)); assay: Postemergence weed control under flooded paddy conditions; type: in vivo, Echinochloa oryzoides; settings: postemergence weeds, 3-4 weeks after treatment
Procedure, shortened: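 Herbicidal effect is judged by eye on a 0–9 scale versus control, 3–4 weeks after dosing. Dosing is into flood water kept 1.5–3 cm over the soil, at about 0.0313–0.500 kg/ha in aqueous/acetone 50/50 v/v, on 3–5 cm weeds and 1.5–2.5-leaf rice seedlings.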

## CCOC(=O)CN1CCSC1=Nc1cc(-n2nc(C)n(C(F)F)c2=O)c(F)cc1Cl [Compound 36]
AMBEL (Ragweed, Common) [1]; Rate 0.0158 kg/ha
  Postemergence herbicidal rating AMBEL: 2.0
AMBEL (Ragweed, Common) [1]; Rate 0.0315 kg/ha
  Postemergence herbicidal rating AMBEL: 3.0
AMBEL (Ragweed, Common) [1]; Rate 0.0630 kg/ha
  Postemergence herbicidal rating AMBEL: 9.0
[2]; Rate 0.0158 kg/ha
  Postemergence herbicidal rating IPOHE: 9.0
[2]; Rate 0.0315 kg/ha
  Postemergence herbicidal rating IPOHE: 9.0
[2]; Rate 0.0630 kg/ha
  Postemergence herbicidal rating IPOHE: 9.0
[3]; Rate 0.0158 kg/ha
  Postemergence herbicidal rating GLXMAW: 5.0
[3]; Rate 0.0315 kg/ha
  Postemergence herbicidal rating GLXMAW: 5.5
[3]; Rate 0.0630 kg/ha
  Postemergence herbicidal rating GLXMAW: 8.0
ZEAMX (Corn, Field); Rate 0.0158 kg/ha
  Postemergence herbicidal rating ZEAMX: 4.5
ZEAMX (Corn, Field); Rate 0.0315 kg/ha
  Postemergence herbicidal rating ZEAMX: 6.0
ZEAMX (Corn, Field); Rate 0.0630 kg/ha
  Postemergence herbicidal rating ZEAMX: 7.5
ABUTH (Velvetleaf); rate 0.0625 kg/ha
  Preemergence herbicidal rating ABUTH: 9.0
ABUTH (Velvetleaf); rate 0.1250 kg/ha
  Preemergence herbicidal rating ABUTH: 9.0
ABUTH (Velvetleaf); rate 0.2500 kg/ha
  Preemergence herbicidal rating ABUTH: 9.0
AMBEL (Ragweed, Common) [4]; rate 0.0625 kg/ha
  Preemergence herbicidal rating AMBEL: 0.0
AMBEL (Ragweed, Common) [4]; rate 0.1250 kg/ha
  Preemergence herbicidal rating AMBEL: 0.0
AMBEL (Ragweed, Common) [4]; rate 0.2500 kg/ha
  Preemergence herbicidal rating AMBEL: 9.0
CASOB (Sicklepod); rate 0.0625 kg/ha
  Preemergence herbicidal rating CASOB: 0.0
CASOB (Sicklepod); rate 0.2500 kg/ha
  Preemergence herbicidal rating CASOB: 0.0
GALAP (Galium); rate 0.0625 kg/ha
  Preemergence herbicidal rating GALAP: 9.0
GALAP (Galium); rate 0.1250 kg/ha
  Preemergence herbicidal rating GALAP: 9.0
GALAP (Galium); rate 0.2500 kg/ha
  Preemergence herbicidal rating GALAP: 9.0
ECHCG (Barnyardgrass); rate 0.0625 kg/ha
  Preemergence herbicidal rating ECHCG: 0.0
ECHCG (Barnyardgrass); rate 0.1250 kg/ha
  Preemergence herbicidal rating ECHCG: 2.0
ECHCG (Barnyardgrass); rate 0.2500 kg/ha
  Preemergence herbicidal rating ECHCG: 6.0
SETVI (Foxtail, Green); rate 0.0625 kg/ha
  Preemergence herbicidal rating SETVI: 0.0
SETVI (Foxtail, Green); rate 0.1250 kg/ha
  Preemergence herbicidal rating SETVI: 9.0
SETVI (Foxtail, Green); rate 0.2500 kg/ha
  Preemergence herbicidal rating SETVI: 9.0
[5]; rate 0.0625 kg/ha
  Preemergence herbicidal rating GLXMAW: 0.0
[5]; rate 0.1250 kg/ha
  Preemergence herbicidal rating GLXMAW: 0.0
[5]; rate 0.2500 kg/ha
  Preemergence herbicidal rating GLXMAW: 0.0
CYPSE (Flatsedge); 0.0313 kg/ha
  Herbicidal rating CYPSE: 0.0
CYPSE (Flatsedge); 0.0625 kg/ha
  Herbicidal rating CYPSE: 0.0
CYPSE (Flatsedge); 0.1250 kg/ha
  Herbicidal rating CYPSE: 2.0
CYPSE (Flatsedge); 0.2500 kg/ha
  Herbicidal rating CYPSE: 4.0
[6]; 0.0313 kg/ha
  Herbicidal rating SAGPY: 0.0
[6]; 0.0625 kg/ha
  Herbicidal rating SAGPY: 0.0
[6]; 0.1250 kg/ha
  Herbicidal rating SAGPY: 3.0
[6]; 0.2500 kg/ha
  Herbicidal rating SAGPY: 9.0
[7]; rate 0.0313 kg/ha
  Herbicidal rating ECHORC: 4.0
[7]; rate 0.0625 kg/ha
  Herbicidal rating ECHORC: 6.0
[7]; rate 0.1250 kg/ha
  Herbicidal rating ECHORC: 7.0
[7]; rate 0.2500 kg/ha
  Herbicidal rating ECHORC: 9.0

## CCOC(=O)CN1C(=O)C(C)SC1=Nc1cc(-n2c(=O)cc(C(F)(F)F)n(C)c2=O)c(F)cc1Cl (centres unmarked) [Compound 12]
AMBEL (Ragweed, Common) [1]; rate 0.0156 kg/ha
  AMBEL herbicidal rating: 7.0
AMBEL (Ragweed, Common) [1]; rate 0.0313 kg/ha
  AMBEL herbicidal rating: 9.0
AMBEL (Ragweed, Common) [1]; rate 0.0625 kg/ha
  AMBEL herbicidal rating: 7.0
AMBEL (Ragweed, Common) [1]; rate 0.1250 kg/ha
  AMBEL herbicidal rating: 9.0
[2]; rate 0.0156 kg/ha
  IPOHE herbicidal rating: 9.0
[2]; rate 0.0313 kg/ha
  IPOHE herbicidal rating: 9.0
[2]; rate 0.0625 kg/ha
  IPOHE herbicidal rating: 9.0
[2]; rate 0.1250 kg/ha
  IPOHE herbicidal rating: 9.0
[3]; rate 0.0156 kg/ha
  GLXMAW herbicidal rating: 5.0
[3]; rate 0.0313 kg/ha
  GLXMAW herbicidal rating: 7.0
[3]; rate 0.0625 kg/ha
  GLXMAW herbicidal rating: 8.5
[3]; rate 0.1250 kg/ha
  GLXMAW herbicidal rating: 8.0
ZEAMX (Corn, Field); rate 0.0156 kg/ha
  ZEAMX herbicidal rating: 6.5
ZEAMX (Corn, Field); rate 0.0313 kg/ha
  ZEAMX herbicidal rating: 7.0
ZEAMX (Corn, Field); rate 0.0625 kg/ha
  ZEAMX herbicidal rating: 7.5
ZEAMX (Corn, Field); rate 0.1250 kg/ha
  ZEAMX herbicidal rating: 8.0
ABUTH (Velvetleaf); rate 0.0156 kg/ha
  ABUTH preemergence herbicidal rating: 7.5
ABUTH (Velvetleaf); rate 0.0313 kg/ha
  ABUTH preemergence herbicidal rating: 9.0
ABUTH (Velvetleaf); rate 0.0625 kg/ha
  ABUTH preemergence herbicidal rating: 9.0
ABUTH (Velvetleaf); rate 0.1250 kg/ha
  ABUTH preemergence herbicidal rating: 9.0
ABUTH (Velvetleaf); rate 0.2500 kg/ha
  ABUTH preemergence herbicidal rating: 9.0
AMBEL (Ragweed, Common) [4]; rate 0.0156 kg/ha
  AMBEL preemergence herbicidal rating: 0.0
AMBEL (Ragweed, Common) [4]; rate 0.0313 kg/ha
  AMBEL preemergence herbicidal rating: 4.5
AMBEL (Ragweed, Common) [4]; rate 0.0625 kg/ha
  AMBEL preemergence herbicidal rating: 9.0
AMBEL (Ragweed, Common) [4]; rate 0.1250 kg/ha
  AMBEL preemergence herbicidal rating: 9.0
AMBEL (Ragweed, Common) [4]; rate 0.2500 kg/ha
  AMBEL preemergence herbicidal rating: 9.0
CASOB (Sicklepod); rate 0.0156 kg/ha
  CASOB preemergence herbicidal rating: 0.0
CASOB (Sicklepod); rate 0.0313 kg/ha
  CASOB preemergence herbicidal rating: 0.0
CASOB (Sicklepod); rate 0.0625 kg/ha
  CASOB preemergence herbicidal rating: 4.5
CASOB (Sicklepod); rate 0.1250 kg/ha
  CASOB preemergence herbicidal rating: 4.5
CASOB (Sicklepod); rate 0.2500 kg/ha
  CASOB preemergence herbicidal rating: 6.0
GALAP (Galium); rate 0.0156 kg/ha
  GALAP preemergence herbicidal rating: 0.0
GALAP (Galium); rate 0.0313 kg/ha
  GALAP preemergence herbicidal rating: 0.0
GALAP (Galium); rate 0.0625 kg/ha
  GALAP preemergence herbicidal rating: 9.0
GALAP (Galium); rate 0.1250 kg/ha
  GALAP preemergence herbicidal rating: 9.0
GALAP (Galium); rate 0.2500 kg/ha
  GALAP preemergence herbicidal rating: 9.0
ECHCG (Barnyardgrass); rate 0.0156 kg/ha
  ECHCG preemergence herbicidal rating: 2.0
ECHCG (Barnyardgrass); rate 0.0313 kg/ha
  ECHCG preemergence herbicidal rating: 5.0
ECHCG (Barnyardgrass); rate 0.0625 kg/ha
  ECHCG preemergence herbicidal rating: 6.0
ECHCG (Barnyardgrass); rate 0.1250 kg/ha
  ECHCG preemergence herbicidal rating: 9.0
ECHCG (Barnyardgrass); rate 0.2500 kg/ha
  ECHCG preemergence herbicidal rating: 9.0
SETVI (Foxtail, Green); rate 0.0156 kg/ha
  SETVI preemergence herbicidal rating: 8.5
SETVI (Foxtail, Green); rate 0.0313 kg/ha
  SETVI preemergence herbicidal rating: 9.0
SETVI (Foxtail, Green); rate 0.0625 kg/ha
  SETVI preemergence herbicidal rating: 9.0
SETVI (Foxtail, Green); rate 0.1250 kg/ha
  SETVI preemergence herbicidal rating: 9.0
SETVI (Foxtail, Green); rate 0.2500 kg/ha
  SETVI preemergence herbicidal rating: 9.0
[5]; rate 0.0156 kg/ha
  GLXMAW preemergence herbicidal rating: 1.5
[5]; rate 0.0313 kg/ha
  GLXMAW preemergence herbicidal rating: 2.0
[5]; rate 0.0625 kg/ha
  GLXMAW preemergence herbicidal rating: 3.5
[5]; rate 0.1250 kg/ha
  GLXMAW preemergence herbicidal rating: 6.5
[5]; rate 0.2500 kg/ha
  GLXMAW preemergence herbicidal rating: 9.0
CYPSE (Flatsedge); 0.0313 kg/ha
  Herbicidal rating CYPSE: 1.0
CYPSE (Flatsedge); 0.0625 kg/ha
  Herbicidal rating CYPSE: 3.0
CYPSE (Flatsedge); 0.1250 kg/ha
  Herbicidal rating CYPSE: 1.0
CYPSE (Flatsedge); 0.2500 kg/ha
  Herbicidal rating CYPSE: 6.0
[6]; 0.0313 kg/ha
  Herbicidal rating SAGPY: 0.0
[6]; 0.0625 kg/ha
  Herbicidal rating SAGPY: 1.0
[6]; 0.1250 kg/ha
  Herbicidal rating SAGPY: 4.0
[6]; 0.2500 kg/ha
  Herbicidal rating SAGPY: 0.0
[7]; rate 0.0313 kg/ha
  Herbicidal rating ECHORC: 5.0
[7]; rate 0.0625 kg/ha
  Herbicidal rating ECHORC: 9.0
[7]; rate 0.1250 kg/ha
  Herbicidal rating ECHORC: 8.5
[7]; rate 0.2500 kg/ha
  Herbicidal rating ECHORC: 9.0
